Where “and” joins values, the source holds several entries; their conditions need not be identical. Equal entries are not always repeated. Where two headings read alike, the source gives them in different places.
Test: Blood pharmacokinetics after a single intraperitoneal dose
Assay type: in vivo, male CD1 mice
Conditions: for blood concentrations quantifiable up to: 1 animal out of 3, LLOQ 10.04 ng/mL; for concentration at 0.08 hr / concentration at 0.25 hr / concentration at 0.5 hr / concentration at 1 hr / concentration at 2 hr / concentration at 4 hr / concentration at 8 hr / concentration at 24 hr / AUC(0-inf) / AUC(0-t) / Cmax / Tmax: male, CD1, mouse, in vivo; for concentration at 24 hr: value excluded from data analysis; for AUC(0-inf) / AUC(0-t) / Cmax / Tmax: blood, mean
Experimental: The objective of this example was to investigate the blood pharmacokinetics of UPHH-123 in male CD1 mice following a single intraperitoneal dose administration. Eighteen male CD1 mice were divided in two groups as, Group 1 and Group 2 comprising nine mice in each group.
Animals in Group 1 were administered intraperitoneally with UPHH-123 solution formulation in 5% NMP, 5% Solutol HS, 30% PEG-400 and 60% normal saline at 10.4 mg/kg dose. Animals in Group 2 were administered intraperitoneally with UPHH-123 solution formulation in 5% NMP, 5% Solutol HS, 30% PEG-400 and 60% normal saline) at 52 mg/kg dose.
Blood samples (approximately 120 μL) were collected at pre-dose, 0.08, 0.25, 0.5, 1, 2, 4, 8 and 24 hr. The blood samples were collected at each time point in a labeled micro centrifuge tube containing K2EDTA as anticoagulant. Immediately aliquot (50 μL) of blood was hemolyzed with equal volume of water (50 μL) and quenched with three volume (150 μL) of acetonitrile (IS containing acetonitrile) and samples were stored below −70° C. until bioanalysis. All samples were processed for analysis by protein precipitation using acetonitrile (ACN) and analyzed with fit for purpose LC/MS/MS method (LLOQ: 10.04 ng/mL for UPHH-123 in blood). Pharmacokinetic parameters were calculated using the non-compartmental analysis tool of Phoenix WinNonlin (Version 7.0). Mean pharmacokinetic parameters are summarized below: […]

blood concentrations quantifiable up to (10.4 mg/kg IP): up to 24 hr
Blood Concentration, individual animal (10.4 mg/kg IP, 0.08 hr): 2082.46 ng/mL and 2293.56 ng/mL
Blood Concentration, individual animal (10.4 mg/kg IP, 0.25 hr): 2572.69 ng/mL and 4414.44 ng/mL
Blood Concentration, individual animal (10.4 mg/kg IP, 0.5 hr): 675.87 ng/mL and 848.67 ng/mL
Blood Concentration, individual animal (10.4 mg/kg IP, 1 hr): 105.72 ng/mL and 180.27 ng/mL
Blood Concentration, individual animal (10.4 mg/kg IP, 8 hr): 26.21 ng/mL and 17.80 ng/mL
Blood Concentration, individual animal (10.4 mg/kg IP, 24 hr, below LLOQ 10.04 ng/mL = zero): 0.00 ng/mL (2×) and 14.58 ng/mL
blood concentrations quantifiable up to (52 mg/kg IP): up to 24 hr
Blood Concentration, individual animal (52 mg/kg IP, 0.08 hr): 7841.88 ng/mL and 4635.35 ng/mL
Blood Concentration, individual animal (52 mg/kg IP, 0.25 hr): 6058.02 ng/mL and 5694.33 ng/mL
Blood Concentration, individual animal (52 mg/kg IP, 0.5 hr): 3520.30 ng/mL and 4708.54 ng/mL
Blood Concentration, individual animal (52 mg/kg IP, 1 hr): 2031.75 ng/mL and 2659.04 ng/mL
Blood Concentration, individual animal (52 mg/kg IP, 8 hr): 167.15 ng/mL and 107.02 ng/mL
Blood Concentration, individual animal (52 mg/kg IP, 24 hr, below LLOQ 10.04 ng/mL = zero): 0.00 ng/mL (2×) and 10.38 ng/mL
dose related increase in plasma exposure (from 10.4 to 52 mg/kg IP): 3.6 fold
concentration at 0.08 hr (10.4 mg/kg, 10.4 mg/kg IP, 0.08 hr, read-out: Blood Concentration, Mean): 1990 ng/mL
concentration at 0.08 hr (10.4 mg/kg, 10.4 mg/kg IP, 0.08 hr, read-out: Blood Concentration, individual animal): 1600 ng/mL
concentration at 0.25 hr (10.4 mg/kg, 10.4 mg/kg IP, 0.25 hr, read-out: Blood Concentration, Mean): 3810 ng/mL
concentration at 0.25 hr (10.4 mg/kg, 10.4 mg/kg IP, 0.25 hr, read-out: Blood Concentration, individual animal): 4440 ng/mL
concentration at 0.5 hr (10.4 mg/kg, 10.4 mg/kg IP, 0.5 hr, read-out: Blood Concentration, Mean): 681 ng/mL
concentration at 0.5 hr (10.4 mg/kg, 10.4 mg/kg IP, 0.5 hr, read-out: Blood Concentration, individual animal): 519 ng/mL
concentration at 1 hr (10.4 mg/kg, 10.4 mg/kg IP, 1 hr, read-out: Blood Concentration, Mean): 148 ng/mL
concentration at 1 hr (10.4 mg/kg, 10.4 mg/kg IP, 1 hr, read-out: Blood Concentration, individual animal): 158 ng/mL
concentration at 2 hr (10.4 mg/kg, 10.4 mg/kg IP, 2 hr): 88 ng/mL
concentration at 4 hr (10.4 mg/kg, 10.4 mg/kg IP, 4 hr): 86.4 ng/mL
concentration at 8 hr (10.4 mg/kg, 10.4 mg/kg IP, 8 hr, read-out: Blood Concentration, Mean): 22.6 ng/mL
concentration at 8 hr (10.4 mg/kg, 10.4 mg/kg IP, 8 hr, read-out: Blood Concentration, individual animal): 23.9 ng/mL
concentration at 24 hr (10.4 mg/kg, 10.4 mg/kg IP, 24 hr): 14.6 ng/mL
concentration at 0.08 hr (52 mg/kg, 52 mg/kg IP, 0.08 hr, read-out: Blood Concentration, Mean): 6160 ng/mL
concentration at 0.08 hr (52 mg/kg, 52 mg/kg IP, 0.08 hr, read-out: Blood Concentration, individual animal): 6000 ng/mL
concentration at 0.25 hr (52 mg/kg, 52 mg/kg IP, 0.25 hr, read-out: Blood Concentration, Mean): 5680 ng/mL
concentration at 0.25 hr (52 mg/kg, 52 mg/kg IP, 0.25 hr, read-out: Blood Concentration, individual animal): 5280 ng/mL
concentration at 0.5 hr (52 mg/kg, 52 mg/kg IP, 0.5 hr, read-out: Blood Concentration, Mean): 3820 ng/mL
concentration at 0.5 hr (52 mg/kg, 52 mg/kg IP, 0.5 hr, read-out: Blood Concentration, individual animal): 3230 ng/mL
concentration at 1 hr (52 mg/kg, 52 mg/kg IP, 1 hr, read-out: Blood Concentration, Mean): 2330 ng/mL
concentration at 1 hr (52 mg/kg, 52 mg/kg IP, 1 hr, read-out: Blood Concentration, individual animal): 2280 ng/mL
concentration at 2 hr (52 mg/kg, 52 mg/kg IP, 2 hr): 360 ng/mL
concentration at 4 hr (52 mg/kg, 52 mg/kg IP, 4 hr): 238 ng/mL
concentration at 8 hr (52 mg/kg, 52 mg/kg IP, 8 hr, read-out: Blood Concentration, Mean): 145 ng/mL
concentration at 8 hr (52 mg/kg, 52 mg/kg IP, 8 hr, read-out: Blood Concentration, individual animal): 160 ng/mL
concentration at 24 hr (52 mg/kg, 52 mg/kg IP, 24 hr): 10.4 ng/mL
AUC(0-inf) (10.4 mg/kg IP): 1950 ng·h/mL
AUC(0-t) (10.4 mg/kg IP): 1850 ng·h/mL
Cmax (10.4 mg/kg IP): 3810 ng/mL
Tmax (10.4 mg/kg IP): 15 min
AUC(0-inf) (52 mg/kg IP): 7640 ng·h/mL
AUC(0-t) (52 mg/kg IP): 6680 ng·h/mL
Cmax (52 mg/kg IP): 6160 ng/mL
Tmax (52 mg/kg IP): 4.8 min
Compound: COc1ccc(Cn2ccc3ccc(C(=O)NO)cc32)cc1 [UPHH-123]
Blood Concentration, individual animal (10.4 mg/kg IP, 2 hr): 39.90 ng/mL and 98.73 ng/mL and 125.25 ng/mL
Blood Concentration, individual animal (10.4 mg/kg IP, 4 hr): 47.81 ng/mL and 118.38 ng/mL and 92.93 ng/mL
Blood Concentration, individual animal (52 mg/kg IP, 2 hr): 315.76 ng/mL and 238.47 ng/mL and 525.92 ng/mL
Blood Concentration, individual animal (52 mg/kg IP, 4 hr): 442.67 ng/mL and 145.43 ng/mL and 125.55 ng/mL
